Patent US20090149551A1 (priority 2007, published 2009)
Where two headings read alike, the source gives them in different places.

Tests used:
[1] = test system: pooled human liver microsomes
[2] = biological target: T1, recombinant human P450 3A4 (Homo sapiens, UniProt P08684); assay: Vivid P450 3A4 activity assay with NADPH regenerating system; type: biochemical; conditions: for decrease of P450 3A4 activity: 2 μM DBOMF
T1 construct: purchased Invitrogen (Carlsbad, Calif.)
Procedure: (§1) The Vivid® P450 3A4 activity assay was carried out according to the manufacturer's protocol. Briefly, water (30 μL) and solutions of HCT (10 μL) were added to wells of a 96-well black plate. Master pre-mix solutions (50 μL) containing recombinant human P450 3A4 and rabbit NADPH P450 reductase were then added, and the resulting solutions were equilibrated at room temperature for 20 min. Finally, 10 μL of mixed NADP^+ and DBOMF substrate solutions were added, and the fluorescence intensity over time was recorded with a fluorometer at the excitation and emission wavelengths of 485 and 535 nm, respectively. The final concentrations were 100 mM phosphate buffer (pH 8.0), 3.3 mM glucose-6-phosphate, 0.3 unit/mL glucose-6-phosphate dehydrogenase, 1.0 mM NADP^+, 2 μM DBOMF and 5 nM P450 3A4 with 0.1% DMSO. Control experiments included no DBOMF as the background and 1 μM ketoconazole as the positive control. The rates of the P450 activity were obtained from the slope of the change of the fluorescent intensity over the initial 8 min.
(§2) Enzyme and Cellular Studies with OHCT. The inhibitory effect of OHCT on P450 3A4 and the metabolic conversion of AFB1 with liver microsomes were studied similarly as described for HCT. […] The P450 activity was carried out similarly as described above with concentrations of DBOMF at 0.50, 0.67, 1.0, and 2.0 μM, respectively. The rates of the P450 activity were obtained as the slope of the change of the fluorescent intensity over the initial 4 min. The inhibitory constants of OHCT were obtained from the global best fit of the mixed inhibition model by GraphPad Prism (version 4.00, GraphPad Software, San Diego, Calif.).

[3] = Stability in solution by HPLC analysis; type: physicochemical
Procedure: 4b,5,6,7,8,8a-cis-Hexahydro-2-hydroxy-4b,8,8a-trimethylphenanthren-9,10-dione (OHCT). Spontaneous oxidation of HCT to OHCT was carried out in 100 mM phosphate buffer (pH 7.4) and 1.0 mM HCT in 10% acetonitrile. […]

human HepG2 cells [4] = type: cell-based; conditions: for chemoprotection against AFB1 induced cytotoxicity: 2 μM AFB1, HepG2
Procedure: The cell viability MTT assay on human HepG2 cells was carried out as previously reported. Briefly, HepG2 cells were seeded at 30,000 cells/well on a 96 well plate for 4 h before the treatment with AFB1 and OHCT or ketoconazole. After incubation for 72 h, the MTT assay was performed, followed by obtaining the absorbance of each well at 570 nm with a plate reader (μQuant, BioTek Instruments, Vt.). The statistical analyses (one-way ANOVA with Dunnett's test) were performed by GraphPad Prism.

P. falciparum clone Dd2 = type: cell-based, Plasmodium falciparum
Procedure: Cultures of Plasmodium falciparum.
In vitro antiplasmodial activity: All solutions of chloroquine diphosphate, artemisinin (Sigma Aldrich), and OHCT were prepared in media RPMI 1640, ethanol and 0.1% DMSO, respectively. […] Parasite growth was estimated by microscopic observation of Giemsa-stained blood smears. All results presented are the means of at least three independent experiments.
OHCT action on specific parasite life cycle stages: P. falciparum cultures were synchronized with 5% sorbitol and the Percoll-Sorbitol methods. Dilutions of OHCT, chloroquine, and artemisinin were prepared. To determine the in vitro efficacies of the three antimalarial drugs in culture, serial dilutions were prepared: for artemisinin, chloroquine and OHCT at 2, 4, 8, 16, 32 and 40 μM, respectively. After synchronization, the parasites were plated at the ring stage in 96-well plates. Each plate corresponded to one of the successive 6-h periods of the P. falciparum life cycle.

[5] = Toxicity in mice receiving OHCT; conditions: administration over four days, observed three months after administration
[6] = test system: human liver or lung cells; assay: Toxicity to human liver or lung cells in culture
CYP3A4 (P450 3A4) = biological target: T2, CYP3A4 (P450 3A4) (Homo sapiens, UniProt P08684); assay: Vivid P450 3A4 activity assay with NADPH regenerating system; type: biochemical; conditions: human, recombinant human P450 3A4 with rabbit NADPH P450 reductase, pH 8, probe DBOMF 2 μM; 1 μM, 2 μM DBOMF; read-out: inhibition of the enzyme activity (P450 3A4)
T2 construct: purchased Invitrogen (Carlsbad, Calif.)
Procedure: as §1, §2

P450 1A/1B = conditions: HepG2, co-treatment with TCDD; cited from earlier work
human HepG2 cells [7] = conditions: HepG2, co-treatment with AFB1; Zhou et al. 2006; cited from earlier work
[8] = mixed inhibition model, global best fit, substrate DBOMF
[9] = 40 μM, 50 μM AFB1, NADPH regenerating system, 37° C. 90 min

T1 sequence (P08684 whole entry): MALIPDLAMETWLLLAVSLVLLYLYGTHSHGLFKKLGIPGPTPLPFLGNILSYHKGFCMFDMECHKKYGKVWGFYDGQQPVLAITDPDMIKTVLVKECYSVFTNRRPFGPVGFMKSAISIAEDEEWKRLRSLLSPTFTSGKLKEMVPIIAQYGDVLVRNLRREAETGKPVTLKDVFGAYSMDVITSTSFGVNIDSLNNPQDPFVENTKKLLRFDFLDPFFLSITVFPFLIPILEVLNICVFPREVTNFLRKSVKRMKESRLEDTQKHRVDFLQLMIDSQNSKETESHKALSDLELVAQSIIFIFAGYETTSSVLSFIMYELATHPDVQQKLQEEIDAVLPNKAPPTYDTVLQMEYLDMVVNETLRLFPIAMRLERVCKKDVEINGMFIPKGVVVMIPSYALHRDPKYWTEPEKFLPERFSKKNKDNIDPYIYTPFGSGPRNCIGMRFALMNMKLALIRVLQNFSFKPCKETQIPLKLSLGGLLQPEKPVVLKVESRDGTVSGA
T2 sequence (P08684 whole entry): as above

O=c1cc(-c2ccccc2)oc2c1ccc1ccccc12 [α-NF, α-naphthoflavone, reference compound]
decrease of aflatoxin Q1 versus no α-NF ([1]; 50 μM): 6 fold | increase of the amount of GSH-AFB1 adducts versus no α-NF ([1]; 50 μM): 2.3 folds

CC(C)CCC[C@@H](C)[C@H]1CC[C@H]2[C@@H]3CC=C4C[C@@H](O)CC[C@]4(C)[C@H]3CC[C@]12C [cholesterol, reference compound]
inhibitory effect on the metabolic conversion of AFB1 in liver microsomes ([1]; up to 100 μM): no inhibitory effect

CC1CCCC2(C)c3ccc(O)cc3C(=O)C(=O)C12C (stereo not drawn) [OHCT, 4b,5,6,7,8,8a-cis-Hexahydro-2-hydroxy-4b,8,8a-trimethylphenanthren-9,10-dione]
decrease of P450 3A4 activity ([2]; 20 μM): 50% | Ki (disassociation constant of enzyme inhibitor complex) [2, 8]: 17.6 ± 5.6 µM | Ki′ (disassociation constant of enzyme-substrate inhibitor complex) [2, 8]: 7.6 ± 1.5 µM | stability under aqueous conditions ([3]; 72 h at 37° C., HPLC): no degradation | cytotoxicity of the compound alone (human HepG2 cells [4]; 60 μM alone, HepG2): no cytotoxicity | cell viability on co-treatment with AFB1 (human HepG2 cells [4]; 60 μM, 2 μM AFB1, HepG2, 72 h, MTT): more than 90% | chemoprotection against AFB1 induced cytotoxicity (human HepG2 cells [4]; 40 and 60 μM): effective chemoprotection | activity against the gametocyte forms of the parasite (P. falciparum clone Dd2; 2 μM): active | decrease of parasitemia (P. falciparum clone Dd2; 16 μM, 8 h, clone Dd2): 50% | killing of chloroquine resistant clone Dd2 (P. falciparum clone Dd2; 24 hr following treatment, concentration dependent): killed | inhibition of early ring, trophozoite and schizont stages (P. falciparum clone Dd2; clone Dd2, 24 hr): equally inhibited | inhibition of the metabolic conversion of AFB1 in liver microsomes [1, 9]: inhibition of both GSH-AFB1 adducts and aflatoxin Q1 | stability under aqueous conditions and in the metabolic study of liver microsomes ([1]; liver microsomes, HPLC): no degradation | signs of toxicity in mice [5]: no signs of toxicity | toxicity to human liver or lung cells in culture [6]: no toxicity

CC(=O)N1CCN(c2ccc(OCC3COC(Cn4ccnc4)(c4ccc(Cl)cc4Cl)O3)cc2)CC1 (stereo not shown) [ketoconazole, reference compound]
inhibition at 8 min, 1 μM (CYP3A4 (P450 3A4)): > 90% | cell mortality, compound alone (human HepG2 cells [4]; 20 μM alone, HepG2): 20% | chemoprotection against AFB1 induced cytotoxicity (human HepG2 cells [4]; 10 and 20 μM): observed | inhibition of the α-NF stimulated production of exo-AFB1-epoxide [1]: consistently inhibited | inhibition of the metabolism of AFB1 in liver microsomes ([1]; 1 μM, 50 μM AFB1, NADPH regenerating system, 37° C. 90 min): same extent as 40 μM HCT

2-hydroxy-cis-terpenone [HCT]
effect on TCDD induced P450-1 activity (P450 1A/1B): inhibited | decrease of P450 3A4 activity ([2]; 10 μM): ~30% | decrease of P450 3A4 activity ([2]; 20 μM): ~50% | decrease of P450 3A4 activity ([2]; 40 μM): ~70% | IC50 ([2]; purified P450 3A4, read-out: IC50, inhibition of purified P450 3A4 enzyme activity): 20 µM | stability in the phosphate buffer and in the AFB1 metabolic study ([3]; 100 mM phosphate buffer pH 7.4, 37° C.): slow degradation | stability of stock solutions ([3]; acetonitrile, −15° C., several weeks): no significant degradation | effect of co-treatment on AFB1 induced cytotoxicity including DNA damage and cell death (human HepG2 cells [7]): reduced AFB1 induced cytotoxicity | inhibition of the metabolic conversion of AFB1 in liver microsomes [1, 9]: effective inhibition | inhibition of the α-NF stimulated production of exo-AFB1-epoxide ([1]; 40 μM, with 50 μM α-NF): consistently inhibited | inhibition of the carcinogenic conversion of AFB1 with liver microsomes ([1]; 10, 20, 40 μM): inhibited by HCT in a concentration dependent manner
